Several values for one entry are separate records, joined by “and”; a condition that tells them apart may be missing. Identical values can stand only once. Like-named read-outs stand apart in the source and are kept apart here.
Columns and labels:
[1] = cited from earlier work
ZIKV NS2B/NS3^pro [2] = target: T1, ZIKV NS2B/NS3^pro (Zika virus, UniProt A0A024B7W1); assay: ZIKV NS2B/NS3^pro inhibition assay, fluorogenic substrate Pyr-Arg-Thr-Lys-Arg-AMC; settings: compound 20 µM
CHIKV nsP2^pro [3] = target: T2, CHIKV nsP2^pro (Chikungunya virus, UniProt Q8JUX6); assay: Thermal unfolding by fluorescence spectroscopy; settings: 10 µM protease, 75 µM ligand
T2 sequence (Q8JUX6 1001-1333): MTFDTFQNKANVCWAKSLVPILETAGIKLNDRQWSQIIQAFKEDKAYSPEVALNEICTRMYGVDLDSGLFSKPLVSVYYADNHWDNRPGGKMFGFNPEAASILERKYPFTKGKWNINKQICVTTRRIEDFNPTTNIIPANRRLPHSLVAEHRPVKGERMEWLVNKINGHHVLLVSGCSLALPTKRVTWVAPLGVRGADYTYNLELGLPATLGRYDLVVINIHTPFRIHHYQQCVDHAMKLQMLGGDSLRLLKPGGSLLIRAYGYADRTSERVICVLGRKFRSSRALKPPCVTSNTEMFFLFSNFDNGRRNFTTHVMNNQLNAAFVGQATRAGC

CHIKV [4] = settings: cited from earlier work
[5] = dose of administration 20 mg/kg, cited from earlier work
CHIKV [6] = assay: Plaque reduction antiviral assay in Vero cells; settings: ~50 PFU, two inhibitor concentrations
trypsin = system: trypsin; design: method as in PMID 23124490; settings: cited from earlier work
[7] = cited from earlier work; remark: listed apart in the source
CHIKV nsP2^pro [8] = target: T2, CHIKV nsP2^pro; assay: Intrinsic Trp fluorescence titration (KD); settings: Trp fluorescence quenching, ± STD
CHIKV nsP2^pro [9] = target: T2, CHIKV nsP2^pro; assay: CHIKV nsP2^pro FRET-based inhibition assay; format: biochemical; settings: for % activity, mean / % inhibition, mean: mean n=3
Vero cells = assay: Cell viability through MTT assay
CHIKV nsP2^pro [10] = target: T2, CHIKV nsP2^pro; design: method as in PMID 32791353; settings: cited from earlier work
ZIKV NS2B/NS3^pro [11] = target: T1, ZIKV NS2B/NS3^pro; design: method as in PMID 28700665; settings: cited from earlier work

T1 sequence (A0A024B7W1 1425-1464): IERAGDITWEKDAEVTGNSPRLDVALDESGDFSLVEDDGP
T1 sequence (A0A024B7W1 1503-1680): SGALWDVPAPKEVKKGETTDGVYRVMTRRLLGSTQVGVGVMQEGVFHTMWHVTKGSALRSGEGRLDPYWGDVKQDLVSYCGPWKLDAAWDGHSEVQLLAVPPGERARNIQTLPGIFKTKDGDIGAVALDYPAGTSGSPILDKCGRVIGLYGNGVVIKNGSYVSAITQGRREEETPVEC

Question: Which results are given for `COc1ccc([C@@H]2CC(=O)c3c(O)cc(O[C@@H]4O[C@H](CO[C@@H]5O[C@@H](C)[C@H](O)[C@@H](O)[C@H]5O)[C@@H](O)[C@H](O)[C@H]4O)cc3O2)cc1O` [HSD, 3’,5,7-trihydroxy-4’-methoxy-flavanone-7-rhamnoglucoside]?
Answer: Potential maximal tolerated dose [1]: Citrus flavonoids are extremely safe and without side effects also up to high concentrations of 100 mg/kg to 500 mg/kg.; Inhibition of protease activity, preliminary inhibition test (ZIKV NS2B/NS3^pro [2]): not relevant inhibition; Melting temperature (Tm) of protease-ligand complex (CHIKV nsP2^pro [3]): 52 °C; ΔTm (CHIKV nsP2^pro [3]): 5 °C; Intracellular replication of CHIKV (CHIKV [4]): inhibit; AUC inf. [5]: 4.92 ± 0.38 µM·h; AUC last [5]: 4.12 ± 0.26 µM·h; Cl systemic clearance [5]: 112 ± 9.67 mL/min/kg; MRT mean residence time [5]: 4.22 ± 0.67 h; T1/2 elimination half-life [5]: 6.74 ± 0.79 h; Vd volume of distribution [5]: 64.58 ± 3.70 L/kg; C0 ([5]; read-out: Co initial concentration): 7.47 ± 1.64 µM; Antiviral activity, plaque reduction (CHIKV [6]): no antiviral activities; IC50 (trypsin): 127 µM; Bioavailability [7]: limited bioavailability; Kd (CHIKV nsP2^pro [8]): 40.7 ± 2 µM; IC50 (CHIKV nsP2^pro [9]; 1 µM protease, 3 µM substrate, mean ± SD, n=3): < 10000 nM; LE (ligand efficiency) (CHIKV nsP2^pro [9]; (1.4*pIC50)/N): 0.17; % activity, mean (CHIKV nsP2^pro [9]; HSD 0.25 (µM)): 97.3333%; % inhibition, mean (CHIKV nsP2^pro [9]; HSD 0.25 (µM)): 2.667%; % activity, mean (CHIKV nsP2^pro [9]; HSD 0.5 (µM)): 90.3333%; % inhibition, mean (CHIKV nsP2^pro [9]; HSD 0.5 (µM)): 9.667%; inhibition at 0.5 µM (CHIKV nsP2^pro [9]; HSD 0.5 (µM), replicates A-C): 11%; % activity, mean (CHIKV nsP2^pro [9]; HSD 1 (µM)): 82%; % inhibition, mean (CHIKV nsP2^pro [9]; HSD 1 (µM)): 18%; % activity (CHIKV nsP2^pro [9]; HSD 1 (µM), replicates A-C): 84%; % inhibition (CHIKV nsP2^pro [9]; HSD 1 (µM), replicates A-C): 16%; inhibition at 1 µM (CHIKV nsP2^pro [9]; HSD 1 (µM), replicates A-C): 22%; % activity, mean (CHIKV nsP2^pro [9]; HSD 2.5 (µM)): 72.3333%; % inhibition, mean (CHIKV nsP2^pro [9]; HSD 2.5 (µM)): 27.6667%; inhibition at 2.5 µM (CHIKV nsP2^pro [9]; HSD 2.5 (µM), replicates A-C): 33%; % activity, mean (CHIKV nsP2^pro [9]; HSD 5 (µM)): 54.6667%; % inhibition, mean (CHIKV nsP2^pro [9]; HSD 5 (µM)): 45.3333%; inhibition at 5 µM (CHIKV nsP2^pro [9]; HSD 5 (µM), replicates A-C): 49%; % activity, mean (CHIKV nsP2^pro [9]; HSD 10 (µM)): 39.6667%; % inhibition, mean (CHIKV nsP2^pro [9]; HSD 10 (µM)): 60.3333%; inhibition at 10 µM (CHIKV nsP2^pro [9]; HSD 10 (µM), replicates A-C): 62%; % activity, mean (CHIKV nsP2^pro [9]; HSD 15 (µM)): 28.6667%; % inhibition, mean (CHIKV nsP2^pro [9]; HSD 15 (µM)): 71.3333%; % activity (CHIKV nsP2^pro [9]; HSD 15 (µM), replicates A-C): 30%; % inhibition (CHIKV nsP2^pro [9]; HSD 15 (µM), replicates A-C): 70%; inhibition at 15 µM (CHIKV nsP2^pro [9]; HSD 15 (µM), replicates A-C): 74%; % activity, mean (CHIKV nsP2^pro [9]; HSD 20 (µM)): 21%; % inhibition, mean (CHIKV nsP2^pro [9]; HSD 20 (µM)): 79%; inhibition at 20 µM (CHIKV nsP2^pro [9]; HSD 20 (µM), replicates A-C): 82%; % activity, mean (CHIKV nsP2^pro [9]; HSD 25 (µM)): 10.3333%; % inhibition, mean (CHIKV nsP2^pro [9]; HSD 25 (µM)): 89.6667%; inhibition at 25 µM (CHIKV nsP2^pro [9]; HSD 25 (µM), replicates A-C): 93%; % activity, mean (CHIKV nsP2^pro [9]; HSD 30 (µM)): 6%; % inhibition, mean (CHIKV nsP2^pro [9]; HSD 30 (µM)): 94%; inhibition at 30 µM (CHIKV nsP2^pro [9]; HSD 30 (µM), replicates A-C): 97%; % activity, mean (CHIKV nsP2^pro [9]; HSD 35 (µM)): 3%; inhibition at 35 µM (CHIKV nsP2^pro [9]; HSD 35 (µM), replicates A-C): 99%; % activity, mean (CHIKV nsP2^pro [9]; HSD 40 (µM)): 0.4%; % inhibition, mean (CHIKV nsP2^pro [9]; HSD 40 (µM)): 99.6%; inhibition at 40 µM (CHIKV nsP2^pro [9]; HSD 40 (µM), replicates A-C): 99.7%; inhibition at 45 µM (CHIKV nsP2^pro [9]; HSD 45 (µM), replicates A-C): 100%; IC50 (CHIKV nsP2^pro [9]; IC50, 1 µM protease, 3 µM substrate, mean ± SD, n=3): 7100 ± 1100 nM; IC50 (CHIKV nsP2^pro [9]; IC50, single replicate, HSD, single replicates A, B, C): 8.32 µM (2×) and 5.62 µM (2×) and 7.24 µM (2×); Inhibition mode (CHIKV nsP2^pro [9]; Lineweaver-Burk plot): noncompetitive; IC50 (CHIKV nsP2^pro [9]; Log conc nM (IC50 determination triplicate), HSD, single replicates A, B, C): 8320 nM and 5620 nM and 7240 nM; IC50 (CHIKV nsP2^pro [9]; pIC50, from IC50 by online tool): 6310 nM; remaining activity at 0.25 µM (CHIKV nsP2^pro [9]; read-out: % activity, HSD 0.25 (µM), replicates A-C): 95%; remaining activity at 0.5 µM (CHIKV nsP2^pro [9]; read-out: % activity, HSD 0.5 (µM), replicates A-C): 89%; remaining activity at 1 µM (CHIKV nsP2^pro [9]; read-out: % activity, HSD 1 (µM), replicates A-C): 78%; remaining activity at 2.5 µM (CHIKV nsP2^pro [9]; read-out: % activity, HSD 2.5 (µM), replicates A-C): 67%; remaining activity at 5 µM (CHIKV nsP2^pro [9]; read-out: % activity, HSD 5 (µM), replicates A-C): 51%; remaining activity at 10 µM (CHIKV nsP2^pro [9]; read-out: % activity, HSD 10 (µM), replicates A-C): 38%; remaining activity at 15 µM (CHIKV nsP2^pro [9]; read-out: % activity, HSD 15 (µM), replicates A-C): 26%; remaining activity at 20 µM (CHIKV nsP2^pro [9]; read-out: % activity, HSD 20 (µM), replicates A-C): 18%; remaining activity at 25 µM (CHIKV nsP2^pro [9]; read-out: % activity, HSD 25 (µM), replicates A-C): 7%; remaining activity at 45 µM (CHIKV nsP2^pro [9]; read-out: % activity, HSD 45 (µM), replicates A-C): 0%; inhibition at 20 µM (CHIKV nsP2^pro [9]; read-out: Inhibition of protease activity, preliminary inhibition test, compound 20 µM): > 60%; Cytotoxic effect at the calculated IC50 concentrations (Vero cells; 2.3 to 300 µM, 2 days): no cytotoxic effect; 50% cytotoxic concentration (Vero cells; 48 h, concentrations up to 300 µM): > 300 µM

Question: Which IC50 (CHIKV nsP2^pro [10]) does the source give for `CO[C@@H]1[C@@H](OC(N)=O)[C@@H](O)[C@H](Oc2ccc3c(O)c(NC(=O)c4ccc(O)c(CC=C(C)C)c4)c(=O)oc3c2C)OC1(C)C` [Novobiocin] here?
Answer: The IC50 was 2 µM.

Question: For `O=c1cc(-c2ccc(O)c(O)c2)oc2cc(O)cc(O)c12` [Luteolin], which Inhibition mode (ZIKV NS2B/NS3^pro [11]) is on record?
Answer: The Inhibition mode was “noncompetitive”.

Question: With `O=c1cc(-c2ccc(O)cc2)oc2cc(O)cc(O)c12` [Apigenin] as the molecule, how does the IC50 (ZIKV NS2B/NS3^pro [11]) read?
Answer: Its IC50 is 56.3 ± 0.9 µM.

Question: And the Inhibition mode (ZIKV NS2B/NS3^pro [11])?
Answer: Its Inhibition mode is “noncompetitive”.

Question: Which IC50 (ZIKV NS2B/NS3^pro [11]) does the source give for `O=c1c(O)c(-c2cc(O)c(O)c(O)c2)oc2cc(O)cc(O)c12` [Myricetin] here?
Answer: The IC50 was 1.3 ± 0.1 µM.

Question: And the Inhibition mode (ZIKV NS2B/NS3^pro [11])?
Answer: Its Inhibition mode is “noncompetitive”.

Question: For `COc1cc(-c2oc3cc(O)cc(O)c3c(=O)c2O)ccc1O` [Isorhamnetin], which IC50 (ZIKV NS2B/NS3^pro [11]) is on record?
Answer: Its IC50 is 15.5 ± 0.7 µM.

Question: And the Inhibition mode (ZIKV NS2B/NS3^pro [11])?
Answer: The Inhibition mode was “noncompetitive”.

Question: Which IC50 (ZIKV NS2B/NS3^pro [11]) does the source give for `O=c1c(O)c(-c2ccc(O)c(O)c2)oc2cc(O)cc(O)c12` [Quercetin] here?
Answer: Its IC50 is 2.4 ± 0.2 µM.

Question: What about the Inhibition mode (ZIKV NS2B/NS3^pro [11]) of the same molecule?
Answer: Its Inhibition mode is “noncompetitive”.

Question: For `CCCc1nc2c(C)cc(-c3nc4ccccc4n3C)cc2n1Cc1ccc(-c2ccccc2C(=O)O)cc1` [Telmisartan], which IC50 (CHIKV nsP2^pro [10]) is on record?
Answer: Its IC50 is 5 µM.

Question: Which Inhibition mode (ZIKV NS2B/NS3^pro [11]) does the source give for `COc1cc(/C=C/C(=O)CC(=O)/C=C/c2ccc(O)c(OC)c2)ccc1O` [Curcumin] here?
Answer: Its Inhibition mode is “noncompetitive”.
